Molecules are shown by their SMILES. ≈ marks a conversion by molar mass, not a printed value. Like-named read-outs stand apart in the source and are kept apart here.

Data set [1] relates to human embryoid bodies (hEB). Nature of the data set: Cytotoxicity in human embryoid bodies, day 15 (MTT / CyQUANT). The note with it: for IC50: Homo sapiens. As for the experimental part: In general, the presently disclosed embryotoxicity testing protocols comprise the following sequence of steps. Studies using embryoid bodies generally comprise: a) preparation of various concentrations of test solutions in culture medium or a desired solvent; b) preparation of a cell suspension by enzymatic digestion of human embryonic stem cell colonies; c) culturing the cell suspension for formation of embryoid bodies in the presence and absence of one or more test solutions, and incubation for several days (e.g., three days) in hanging drops; d) cultivation of the embryoid bodies in bacteriological petri dishes for several days (e.g., two days) under controlled conditions; e) transfer of the embryoid bodies into 96 well plates and incubation for several days (e.g., 10 days) in the presence of one or more test solutions; and f) detection of the viability of the embryoid bodies after 15 days by MTT assay, or fluorescent or luminescent method, and isolation of RNA for studying gene expression. Studies using human foreskin fibroblasts (HFF) generally comprise: a) preparation of various concentrations of test solutions in culture medium or a desired solvent; b) plating of HFF cells in 96 well plates in the presence or absence of one or more test solutions for 15 days, changing the media and test solutions every 2 days; and c) detection of the viability of HFF after 15 days by MTT assay, or fluorescent or luminescent method. Studies using human embryonic stem cells generally comprise: a) preparation of various concentrations of test solutions in culture medium or a desired solvent; b) preparation of hES colonies by manual passage in the presence and absence of one or more test solutions, and incubation for 15 days on matrigel coated plates changing the media and test solutions every 2 days; c) disruption of the colonies after 15 days with enzymes to form single cells; d) labeling of single cells with a fluorescently-labeled dye, such as propidium iodide (“PI”); and e) detection of the percentage viability with FACS as a measure of cytotoxicity.
The culturing of the cell suspension is done by dispensing about ¼ of the cell suspension along with test chemicals on the inner side of a 100 mm bacteriological petri dish. Around 50-80 drops are dispensed for each concentration, the untreated control, and the solvent control. The lid is turned carefully into its regular position and is put on top of a petri dish containing 5 ml of phosphate buffered saline (“PBS”). The “hanging drops” are incubated for three days in a humidified atmosphere with 5% CO2 at 37° C.
On day 3, 5 ml of freshly prepared test solution is added to the lid of the “hanging drops” petri dish. The embryoid bodies are carefully transferred from the lid of the “hanging drops” petri dish to a 60 mm bacteriological petri dish. The suspension is cultivated for two days in a humidified atmosphere with 5% CO2 at 37° C.
On the 5th day, the EBs are transferred into 96 well plates by placing 10 EBs in each well. About 150 μl of freshly prepared test solution is added to each well, and three wells are used for each concentration. The 96 well plates are incubated for […] in a humidified atmosphere with 5% CO2 at 37° C. The remaining EBs are plated on a 24 well plate coated with 0.2% gelatin and allowed to differentiate. Media was replaced every second day until day 15.
On the 15th day, an MTT assay is performed. MTT solution (5 mg/ml) is prepared in culture medium containing test chemical. The MTT solution is added to all wells and incubated at 37° C. in a humidified atmosphere of 5% CO2 for 4 hours, after which the MTT desorb solution (acidified isopropanol) is added to each well. The plate is shaken on a micrometer plate for 15 minutes to dissolve the formazan. The absorbance is measured at 550-570 nm in a microtiter plate reader using 630 nm as a reference wavelength.

For data set [2], the system named is human embryonic stem cells (hES). Nature of the data set: Cytotoxicity in undifferentiated human embryonic stem cells, day 15 (FACS with PI / CyQUANT). Format: cell-based. The following applies: for IC50: Homo sapiens, Embryonic stem cell. As for the experimental part:
In general, the presently disclosed embryotoxicity testing protocols comprise the following sequence of steps. Studies using embryoid bodies generally comprise: a) preparation of various concentrations of test solutions in culture medium or a desired solvent; b) preparation of a cell suspension by enzymatic digestion of human embryonic stem cell colonies; c) culturing the cell suspension for formation of embryoid bodies in the presence and absence of one or more test solutions, and incubation for several days (e.g., three days) in hanging drops; d) cultivation of the embryoid bodies in bacteriological petri dishes for several days (e.g., two days) under controlled conditions; e) transfer of the embryoid bodies into 96 well plates and incubation for several days (e.g., 10 days) in the presence of one or more test solutions; and f) detection of the viability of the embryoid bodies after 15 days by MTT assay, or fluorescent or luminescent method, and isolation of RNA for studying gene expression. Studies using human foreskin fibroblasts (HFF) generally comprise: a) preparation of various concentrations of test solutions in culture medium or a desired solvent; b) plating of HFF cells in 96 well plates in the presence or absence of one or more test solutions for 15 days, changing the media and test solutions every 2 days; and c) detection of the viability of HFF after 15 days by MTT assay, or fluorescent or luminescent method. Studies using human embryonic stem cells generally comprise: a) preparation of various concentrations of test solutions in culture medium or a desired solvent; b) preparation of hES colonies by manual passage in the presence and absence of one or more test solutions, and incubation for 15 days on matrigel coated plates changing the media and test solutions every 2 days; c) disruption of the colonies after 15 days with enzymes to form single cells; d) labeling of single cells with a fluorescently-labeled dye, such as propidium iodide (“PI”); and e) detection of the percentage viability with FACS as a measure of cytotoxicity. […]
After 2 hours incubation, 150 μl of assay medium containing the appropriate concentration of test chemical (150 μl volume contains 1.333× the final chemical concentration) was added. Appropriate blanks without the chemicals were used along with the test samples The cell cultures were incubated at 5% CO2 and 37° C. for 3 days. On day 3, test solution was removed with the care, so that the cell layer on the bottom of the wells was not disturbed. Next, 200 μl of freshly prepared test solution (final concentration/well as on day 0) was added, and the cell cultures were incubated at 5% CO2 and 37° C. for 3 days. This process was repeated on days 6, 9, and 12. Determination of cell growth inhibition was performed at day 15 of the assay using MTT reagent. Cytotoxicity for hES cells was calculated using flow cytometry. Briefly, cells were placed on matrigel coated plates along with different test compound concentrations. Media was replaced every 3 days along with the different test compound concentrations. At day 15, hES cells were collected by trypsinization, and after washing with PBS, the cells were incubated with PI for 10 minutes in the dark. Percent viability for various test compound concentrations was calculated using flow cytometry.
Cytotoxicity analysis of three cell types (hES, hEBs and HFF) was evaluated using the CyQUANT assay following compound treatment. All data were the mean of three independent experiments for each cell type. Data is represented as the mean±SE.

The mark [3] stands for this setting: 360 h, Table 3, mean of 3 experiments, day 15, read-out: IC50-hES.
The mark [4] stands for this setting: Table 4, CyQuant cell viability assay, read-out: Human EST IC50 - hES.

As to `O=c1[nH]cc(F)c(=O)[nH]1` [5-Fluorouracil, 5-fluorouracil], the “survival of hEBs until day 15” value in data set [1] (1 μg/ml (highest dose)) is “did not survive until day 15”. The IC50 came out at 0.00114 µg/mL (≈ 0.00873 µM) in data set [1] (360 h, read-out: IC50-hEB) and 0.546 µg/mL (≈ 4.2 µM) in data set [2] (setting [3]). Further, the “effect on cell viability” value is given as “significant effect” in data set [1] (hEBs, 0.01 μg/ml, FIG. 3A) and “no major effect” in data set [2] (hES, up to 0.01 μg/ml, FIG. 3A). The survival percentage in data set [1] (hEBs, 1 μg/ml, day 15, FIG. 3A) was found to be 7%; in data set [2] (hES, 1 μg/ml, day 15, FIG. 3A) it was 30%.

`CS(=O)(=O)OCCCCOS(C)(=O)=O` [Busulfan, busulfan]: the IC50 was 0.38 ± 0.03 µg/mL (≈ 1.54 µM) in data set [1] (360 h, read-out: IC50-hEB); 0.38 µg/mL (≈ 1.54 µM) in data set [1] (read-out: IC50-hEBs); 2.1 ± 0.6 µg/mL (≈ 8.53 µM) in data set [2] (setting [3]); 2.1 ± 0.6 µg/mL (≈ 8.53 µM) in data set [2] (setting [4]). In data set [1] (hEBs, 1 μg/ml, CyQUANT, FIG. 4E), the cell survival came out at 30%.

Consider `Cn1c(=O)c2c(ncn2C)n(C)c1=O` [Caffeine, caffeine], for which the IC50 is 81.6 ± 5.4 µg/mL (≈ 420 µM) in data set [1] (360 h, read-out: IC50-hEB); 81.6 µg/mL (≈ 420 µM) in data set [1] (read-out: IC50-hEBs); 110 ± 12.5 µg/mL (≈ 566 µM) in data set [2] (setting [3]); 110 ± 12.5 µg/mL (≈ 566 µM) in data set [2] (setting [4]). Further, the survival entry in data set [1] (hEBs, 500 μg/ml, FIG. 3B) was “about 10%”; in data set [2] (hES, 500 μg/ml, FIG. 3B), “about 10%”.

For `NC(=O)NO` [Hydroxyurea, hydroxyurea], the half-inhibitory concentration (IC50) in data set [1] (360 h, read-out: IC50-hEB) is 2.33 ± 0.2 µg/mL (≈ 30.6 µM); in data set [1] (read-out: IC50-hEBs), 2.3 µg/mL (≈ 30.2 µM); in data set [2] (setting [3]) it was 2.6 ± 0.2 µg/mL (≈ 34.2 µM); in data set [2] (setting [4]), 2.6 ± 0.2 µg/mL (≈ 34.2 µM).

Take `COc1ccc2c(c1)c(CC(=O)O)c(C)n2C(=O)c1ccc(Cl)cc1` [Indomethacin, indomethacin]: the IC50 in data set [1] (360 h, read-out: IC50-hEB) was 4.49 ± 0.84 µg/mL (≈ 12.5 µM); in data set [1] (read-out: IC50-hEBs) it was 4.49 µg/mL (≈ 12.5 µM); in data set [2] (setting [3]), 73.4 ± 3.4 µg/mL (≈ 205 µM); in data set [2] (setting [4]), 73.4 ± 3.4 µg/mL (≈ 205 µM).

`CC1(C)S[C@@H]2[C@H](NC(=O)Cc3ccccc3)C(=O)N2[C@H]1C(=O)O` [Penicillin G, penicillin G]: the “cytotoxic effects in hEBs compared to hES cells and HFF” value in data set [1] (1000 μg/ml, FIG. 3C) is reported as “more cytotoxic effects”. This molecule displayed an IC50-hEBs in data set [1] (Table 5) of 1300 µg/mL (≈ 3890 µM). Further, the cell survival entry in data set [1] (hEBs, 1000 μg/ml, CyQUANT, FIG. 4A/4B) is listed as “about 60%”; in data set [1] (hEBs, 5000 μg/ml (highest dose), FIG. 3C), 30%; in data set [2] (hES, 5000 μg/ml (highest dose), FIG. 3C), 1-2%. This molecule also returned an IC50-hES in data set [2] (Table 3, mean of 3 experiments, day 15) of 2013 ± 23.5 µg/mL (≈ 6020 µM). In data set [2] (Table 4, CyQuant cell viability assay), the “Human EST IC50 - hES” value amounted to 2013 ± 23.5 µg/mL.

The term IC50 denotes the concentration that gives 50% inhibition.

(Values after patent US20090220996A1, “In vitro Assay Methods for Classifying Embryotoxicity of Compounds” (RELIANCE LIFE SCIENCES PVT LTD., priority 2007, published 2009).)
